ChEMBL document CHEMBL5518172, “Discovery of hydroxamate as a promising scaffold dually inhibiting metallo- and serine-β-lactamases” (Eur J Med Chem, 2024)
pIC50, pKi: −log10 of the molar value. Active and inactive are the calls of the source. No cut-off for these calls is given here.

Tests used:
Bacteria [1] = test: Inhibition of recombinant metallo-beta-lactamase IMP-1 (unknown origin) expressed in Escherichia coli BL21 (DE3) cells using cefazolin as substrate at 20 uM by spectrometric analysis relative to control
Bacteria [2] = test: Inhibition of recombinant metallo-beta-lactamase ImiS (unknown origin) expressed in Escherichia coli BL21 (DE3) cells using meropenem as substrate at 20 uM by spectrometric analysis relative to control
Bacteria [3] = test: Inhibition of recombinant serine beta lactamase KPC-2 (unknown origin) expressed in Escherichia coli BL21 (DE3) cells using meropenem as substrate at 20 uM by spectrometric analysis relative to control
Bacteria [4] = test: Inhibition of recombinant serine beta lactamase OXA-48 (unknown origin) expressed in Escherichia coli BL21 (DE3) cells using meropenem as substrate at 20 uM by spectrometric analysis relative to control
[5] = target: T1, Metallo-beta-lactamase type 2 (Bacteria, UniProt C7C422); test: Inhibition of recombinant NDM-1 (unknown origin) expressed in Escherichia coli BL21 (DE3) cells using meropenem as substrate by spectrometric analysis
T1 sequence (C7C422 whole entry): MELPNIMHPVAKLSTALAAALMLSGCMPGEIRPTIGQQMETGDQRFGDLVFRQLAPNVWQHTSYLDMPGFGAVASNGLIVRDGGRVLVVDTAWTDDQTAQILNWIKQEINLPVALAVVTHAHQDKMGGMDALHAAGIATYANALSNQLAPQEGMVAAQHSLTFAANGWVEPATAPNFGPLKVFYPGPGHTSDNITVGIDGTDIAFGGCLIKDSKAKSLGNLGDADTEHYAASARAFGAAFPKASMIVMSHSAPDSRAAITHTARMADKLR

[6] = Inhibition of recombinant serine beta lactamase OXA-48 (unknown origin) expressed in Escherichia coli BL21 (DE3) cells using meropenem as substrate by spectrometric analysis; design: species or system Bacteria
[7] = target: T1, Metallo-beta-lactamase type 2; test: Non-competitive inhibition of recombinant NDM-1 (unknown origin) expressed in Escherichia coli BL21 (DE3) cells using meropenem as substrate assessed as inhibition constant by Lineweaver-Burk plot analysis
[8] = Non-competitive inhibition of recombinant serine beta lactamase KPC-2 (unknown origin) expressed in Escherichia coli BL21 (DE3) cells using meropenem as substrate assessed as inhibition constant by Lineweaver-Burk plot analysis; design: species or system Bacteria
[9] = target: Metallo-beta-lactamase type 2 (Bacteria) (UniProt C7C422); test: Inhibition of recombinant NDM-1 (unknown origin) expressed in Escherichia coli BL21 (DE3) cells assessed as reduction in residual activity incubated for 20 hrs; conditions: dose 0.3-5 µM
Chain of Metallo-beta-lactamase type 2 (Bacteria) (C7C422 whole entry): as above

Bacteria [10] = test: Inhibition of recombinant IMP-1 (unknown origin) expressed in Escherichia coli BL21 (DE3) cells assessed as reduction in residual activity at 0.25 to 5 uM; conditions: dose 0.25-5 µM, time 20.0 hrs, TDE = time-dependent effect
Bacteria [11] = test: Inhibition of recombinant serine beta lactamase OXA-48 (unknown origin) expressed in Escherichia coli BL21 (DE3) cells assessed as reduction in residual activity at 0.3 to 5 uM; conditions: dose 0.3-5 µM, time 120.0 min, TDE = time-dependent effect
Bacteria [12] = test: Inhibition of recombinant serine beta lactamase KPC-2 (unknown origin) expressed in Escherichia coli BL21 (DE3) cells assessed as maximal inhibition at 5 uM incubated for 2.5 hrs
Bacteria [13] = test: Inhibition of recombinant serine beta lactamase KPC-2 (unknown origin) expressed in Escherichia coli BL21 (DE3) cells using cefazolin as substrate assessed as reduction in residual activity; conditions: dose 0.075-20 µM
Bacteria [14] = test: Inhibition of recombinant serine beta lactamase OXA-48 (unknown origin) expressed in Escherichia coli BL21 (DE3) cells using cefazolin as substrate assessed as reduction in residual activity; conditions: dose 0.075-20 µM
[15] = target: Metallo-beta-lactamase type 2 (Bacteria) (UniProt C7C422); test: Inhibition of recombinant NDM-1 (unknown origin) expressed in Escherichia coli BL21 (DE3) cells using meropenem as substrate assessed as residual activity at 20 uM relative to control
Bacteria [16] = test: Inhibition of recombinant serine beta lactamase KPC-2 (unknown origin) expressed in Escherichia coli BL21 (DE3) cells using cefazolin as substrate assessed as residual activity at 20 uM relative to control
Bacteria [17] = test: Inhibition of recombinant serine beta lactamase OXA-48 (unknown origin) expressed in Escherichia coli BL21 (DE3) cells using cefazolin as substrate assessed as residual activity at 20 uM relative to control
Bacteria [18] = test: Irreversible inhibition of recombinant serine beta lactamase OXA-48 (unknown origin) expressed in Escherichia coli BL21 (DE3) cells using cefazolin as substrate assessed as reduction in residual activity at 5 uM preincubated for 6 hrs followed by dialysis and measured after 24 hrs
Bacteria [19] = test: Binding affinity to recombinant metallo-beta-lactamase IMP-1 (unknown origin) expressed in Escherichia coli BL21 (DE3) cells assessed as thermal stabilization by measuring change in melting temperature at 50 uM incubated under 25 to 80 degreeC by SYPRO orange dye based thermal shift assay (reference value: 71.9 degreeC)
Escherichia coli [20] = test: Synergistic antibacterial activity against Escherichia coli assessed as meropenem MIC at 64 microg/ml measured after 16 hrs by CLSI protocol based broth microdilution method (reference value: 64 microg/ml); type: functional; conditions: dose 64 µg/ml
Escherichia coli [21] = test: Synergistic antibacterial activity against Escherichia coli clinical isolate 06 assessed as meropenem MIC at 64 microg/ml measured after 16 hrs by CLSI protocol based broth microdilution method (reference value: 128 microg/ml); type: functional; conditions: dose 64 µg/ml
Escherichia coli [22] = test: Synergistic antibacterial activity against Escherichia coli clinical isolate 07 assessed as meropenem MIC at 64 microg/ml measured after 16 hrs by CLSI protocol based broth microdilution method (reference value: 128 microg/ml); type: functional; conditions: dose 64 µg/ml
Escherichia coli [23] = test: Synergistic antibacterial activity against Escherichia coli clinical isolate 24 assessed as meropenem MIC at 64 microg/ml measured after 16 hrs by CLSI protocol based broth microdilution method (reference value: 256 microg/ml); type: functional; conditions: dose 64 µg/ml
Escherichia coli [24] = test: Synergistic antibacterial activity against Escherichia coli BL21 (DE3) harboring NDM-1 assessed as fold decrease in meropenem MIC at 64 microg/ml measured after 16 hrs by CLSI protocol based broth microdilution method; type: functional; conditions: dose 64 µg/ml
Escherichia coli [25] = test: Synergistic antibacterial activity against Escherichia coli clinical isolate 04 assessed as fold decrease in meropenem MIC at 64 microg/ml measured after 16 hrs by CLSI protocol based broth microdilution method; type: functional; conditions: dose 64 µg/ml
Escherichia coli [26] = test: Synergistic antibacterial activity against Escherichia coli BL21 (DE3) harboring metallo-beta-lactamase IMP-1 assessed as decrease in bacterial colony at 128 microg/ml incubated for 12 hrs in presence of meropenem by imaging analysis; type: functional, organism-based; conditions: dose 128.0 µg/ml
Escherichia coli [27] = test: Antibacterial activity against Escherichia coli BL21 (DE3) harboring serine beta lactamase KPC-2 assessed as inhibition of bacterial growth upto 512 microg/ml by microdilution checkerboard assay; type: functional, organism-based; conditions: dose <= 512.0 µg/ml
Escherichia coli [28] = test: Synergistic antibacterial activity against Escherichia coli BL21 (DE3) harboring NDM-1 assessed as reduction in meropenem MIC upto 256 microg/ml in presence of meropenem by microdilution checkerboard assay; type: functional, organism-based; conditions: dose <= 256.0 µg/ml
Escherichia coli [29] = test: Synergistic antibacterial activity against Escherichia coli BL21 (DE3) harboring serine beta lactamase KPC-2 assessed as reduction in meropenem MIC upto 256 microg/ml in presence of meropenem by microdilution checkerboard assay; type: functional, organism-based; conditions: dose <= 256.0 µg/ml
Escherichia coli [30] = test: Synergistic antibacterial activity against Escherichia coli BL21 (DE3) harboring serine beta lactamase OXA-48 assessed as reduction in meropenem MIC upto 256 microg/ml in presence of meropenem by microdilution checkerboard assay; type: functional, organism-based; conditions: dose <= 256.0 µg/ml
Escherichia coli [31] = test: Synergistic antibacterial activity against Escherichia coli harboring NDM-1 infected in Kunming mouse model assessed as reduction in bacterial load in spleen at 20 mg/kg, ip co-administered with 10 mg/kg of meropenem; type: functional, organism-based
[32] = Cytotoxicity against mouse L929 cells assessed as cell viability upto 200 uM incubated for 48 hrs by CCK8 assay relative to control; type: toxicity, cell-based; conditions: read-out: Activity

SMILES: O=C(CCCc1ccccc1)NOC(=O)OCc1ccccc1
- inhibition (Bacteria [1]): > 90%
- inhibition (Bacteria [2]): < 42%
- inhibition (Bacteria [3]): > 90%
- inhibition (Bacteria [4]): > 90%
- pIC50 [5]: 6.19
- pIC50 [6]: 6.00
- pKi [7]: 5.60
- pKi [8]: 6.26
- inhibition [9]: Dose-Dependent Effect
- inhibition (Bacteria [10]): Tde
- inhibition (Bacteria [11]): Tde
- inhibition (Bacteria [12]): Active
- inhibition (Bacteria [13]): Dose-Dependent Effect
- inhibition (Bacteria [14]): Dose-Dependent Effect
- Activity [15]: < 10%
- Activity (Bacteria [16]): < 10%
- Activity (Bacteria [17]): < 10%
- inhibition (Bacteria [18]): Active
- Tm (Bacteria [19]): 74.3 °C
- MIC (Escherichia coli [20]): 64 µg/mL
- MIC (Escherichia coli [21]): 64 µg/mL
- MIC (Escherichia coli [22]): 128 µg/mL
- MIC (Escherichia coli [23]): 128 µg/mL
- fold change (FC) (Escherichia coli [24]): 8
- fold change (FC) (Escherichia coli [25]): 2
- Activity (Escherichia coli [26]): Active
- Activity (Escherichia coli [27]): inactive
- Activity (Escherichia coli [28]): Active
- Activity (Escherichia coli [29]): Active
- Activity (Escherichia coli [30]): Active
- Activity (Escherichia coli [31]): Active
- viability at 48 h, up to 200 µM [32]: > 80%
